Data taken from patent US6255303A, “Phthalazinone PDE III/IV inhibitors” (Byk Gulden Lomberg Chemische Fabrik GmbH, priority 1998, dated 2001).

Legend:
PDE4 = assay: Inhibition of PDE isoenzymes: PDE4 (cAMP-specific), cytosol of human polymorphonuclear leukocytes, cAMP as substrate; format: biochemical; conditions: cytosol of human PMNL; 0.5 μM cAMP; motapizone (1 μM) to suppress PDE3; pH 7.4, 37° C., 15 min
PDE3 = molecular target: T1, PDE3 (Homo sapiens, UniProt Q14432); assay: Inhibition of PDE isoenzymes: PDE3 (cGMP-inhibited), homogenates of human blood platelets; format: biochemical; conditions: 0.5 μM cAMP or cGMP, pH 7.4, 37° C., 15 min, read-out: -log IC50 PDE3 (converted)
T1 construct: investigated in homogenates of human blood platelets; from tissue; host or cells: human blood platelets (homogenate)
T1 sequence (Q14432 whole entry): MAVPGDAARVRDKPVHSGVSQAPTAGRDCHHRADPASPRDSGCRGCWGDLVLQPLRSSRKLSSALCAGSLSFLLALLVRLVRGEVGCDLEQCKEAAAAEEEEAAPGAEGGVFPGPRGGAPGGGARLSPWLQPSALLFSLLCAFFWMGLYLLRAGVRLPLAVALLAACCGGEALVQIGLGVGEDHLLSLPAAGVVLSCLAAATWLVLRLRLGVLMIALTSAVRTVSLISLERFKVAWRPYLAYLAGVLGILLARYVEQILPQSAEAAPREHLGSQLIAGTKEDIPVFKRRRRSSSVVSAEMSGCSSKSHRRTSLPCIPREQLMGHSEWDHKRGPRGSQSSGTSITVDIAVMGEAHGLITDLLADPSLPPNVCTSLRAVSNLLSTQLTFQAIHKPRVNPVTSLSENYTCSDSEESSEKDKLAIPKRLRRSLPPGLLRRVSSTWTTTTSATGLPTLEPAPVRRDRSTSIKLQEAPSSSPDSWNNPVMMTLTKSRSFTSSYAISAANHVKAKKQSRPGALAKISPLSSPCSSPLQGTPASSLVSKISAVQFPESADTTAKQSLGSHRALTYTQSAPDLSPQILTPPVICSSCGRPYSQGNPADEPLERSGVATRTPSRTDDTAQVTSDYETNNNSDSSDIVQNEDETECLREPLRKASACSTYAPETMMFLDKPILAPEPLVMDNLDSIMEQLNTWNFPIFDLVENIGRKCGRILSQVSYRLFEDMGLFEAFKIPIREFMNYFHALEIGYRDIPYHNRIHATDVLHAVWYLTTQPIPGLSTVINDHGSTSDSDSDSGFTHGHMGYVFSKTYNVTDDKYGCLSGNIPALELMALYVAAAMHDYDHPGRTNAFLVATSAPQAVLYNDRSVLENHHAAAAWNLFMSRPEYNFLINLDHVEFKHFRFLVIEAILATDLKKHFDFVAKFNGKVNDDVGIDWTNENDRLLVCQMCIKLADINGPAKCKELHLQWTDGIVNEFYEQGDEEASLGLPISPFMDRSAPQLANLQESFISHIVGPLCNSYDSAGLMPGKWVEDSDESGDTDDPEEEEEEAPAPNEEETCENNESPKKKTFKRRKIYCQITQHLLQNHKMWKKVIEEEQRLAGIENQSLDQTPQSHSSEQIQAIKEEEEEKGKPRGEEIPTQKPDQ

| Compound | -log IC50 PDE4 (PDE4) | IC50 (PDE3) |
| --- | --- | --- |
| COc1ccc(C2=NN(c3ccc(C4=NNC(=O)CC4C)cc3)C(=O)[C@H]3CC=CC[C@@H]23)cc1Cl (relative stereo) [Compound 12, (cis)-4-(3-chloro-4-methoxyphenyl)-2-{4-(4-methyl-6-oxo-1,4,5,6-tetrahydropyridazin-3-yl)phenyl}-4a,5,8,8a-tetrahydro-2H-phthalazin-1-one] | 7.00 mol/l | 81.3 nM |
| CCOc1ccc(C2=NN(c3ccc(C4=NNC(=O)CC4C)cc3)C(=O)[C@H]3CC=CC[C@@H]23)cc1OCC (relative stereo) [Compound 14, (cis)-4-(3,4-diethoxyphenyl)-2-{4-(4-methyl-6-oxo-1,4,5,6-tetrahydropyridazin-3-yl)phenyl}-4a,5,8,8a-tetrahydro-2H-phthalazin-1-one] | 8.05 mol/l | 275 nM |
| COc1ccc(C2=NN(CC(=O)Nc3ccc(-c4ccc(=O)[nH]n4)cc3)C(=O)[C@@H]3CC=CC[C@H]23)cc1OC (relative stereo) [Compound 5] | 8.10 mol/l | 1260 nM |
| COc1ccc(C2=NN(CCCCC(=O)Nc3ccc(-c4ccc(=O)[nH]n4)cc3)C(=O)[C@@H]3CC=CC[C@H]23)cc1OC (relative stereo) [Compound 6] | 8.17 mol/l | 832 nM |
| COc1ccc(C2=NN(c3ccc(C(=O)Nc4ccc(C5=NNC(=O)CC5C)cc4)cc3)C(=O)[C@H]3CC=CC[C@@H]23)cc1OC (relative stereo) [Compound 4, (cis)-N-{4-(4-Methyl-6-oxo-1,4,5,6-tetrahydro-pyridazin-3-yl)phenyl}-4-{4-(3,4-dimethoxyphenyl)-1-oxo-4a,5,8,8a-tetrahydro-1H-phthalazin-2-yl}benzamide] | 8.48 mol/l | 891 nM |
| COc1ccc(C2=NN(CC(=O)Nc3ccc(C4=NNC(=O)CC4C)cc3)C(=O)[C@H]3CC=CC[C@@H]23)cc1OC (relative stereo) [Compound 7, (cis)-N-{4-(4-Methyl-6-oxo-1,4,5,6-tetrahydro-pyridazin-3-yl)phenyl}-2-{4-(3,4-dimethoxy-phenyl)-1-oxo-4a,5,8,8a-tetrahydro-1H-phthalazin-2-yl}acetamide] | 8.40 mol/l | 182 nM |
| COc1ccc(C2=NN(CCCCOc3ccc(C4=NNC(=O)CC4C)cc3)C(=O)[C@H]3CC=CC[C@@H]23)cc1Cl (relative stereo) [Compound 13, (cis)-6-(4-[4-{4-(3-Chloro-4-methoxyphenyl)-1-oxo-4a,5,8,8a-tetrahydro-2H-phthalazin-2-yl}-1-butyloxy)phenyl]-4,5-dihydro-5-methyl-2H-pyridazin-3-one] | 7.77 mol/l | 35.5 nM |
| COc1ccc(C2=NN(C(C)CCC(=O)Nc3ccc(C4=NNC(=O)CC4C)cc3)C(=O)[C@H]3CC=CC[C@@H]23)cc1OC (relative stereo) [Compound 8, (cis)-N-{4-(4-Methyl-6-oxo-1,4,5,6-tetrahydro-pyridazin-3-yl)phenyl}-4-{4-(3,4-dimethoxyphenyl)-1-oxo-4a,5,8,8a-tetrahydro-1H-phthalazin-2-yl}valeramide] | 8.17 mol/l | 100 nM |
| COc1ccc(C2=NN(c3ccc(C4=NNC(=O)CC4C)cc3)C(=O)[C@H]3CC=CC[C@@H]23)cc1OC (relative stereo) [Compound 2, (cis)-4-(3,4-Dimethoxyphenyl)-2-{4-(4-methyl-6-oxo-1,4,5,6-tetrahydropyridazin-3-yl)phenyl}-4a,5,8,8a-tetrahydro-2H-phthalazin-1-one] | 8.36 mol/l | 204 nM |
| COc1ccc(C2=NN(c3ccc(C4=NNC(=O)CC4C)cc3)C(=O)[C@@H]3CC=CC[C@H]23)cc1OC (stereo partly drawn) [Compound 16, (4aS,8aR)-4-[4-{4-(3,4-dimethoxyphenyl)-1-oxo-4a,5,8,8a-tetrahydro-2H-phthalazin-2-yl}phenyl]-5,6-dihydro-5-methylpyridazin-1-one] | 8.64 mol/l | 437 nM |
| COc1ccc(C2=NN(c3ccc(C(=O)Nc4ccc(-c5ccc(=O)[nH]n5)cc4)cc3)C(=O)[C@H]3CC=CC[C@@H]23)cc1OC (relative stereo) [Compound 9, (cis)-N-{4-(6-Oxo-1,6-dihydro-pyridazin-3-yl)phenyl}-4-(4-{3,4-dimethoxyphenyl}-1-oxo-4a,5,8,8a-tetrahydro-1H-phthalazin-2-yl)benzamide] | 9.08 mol/l | 4900 nM |
| CCOc1ccc(C2=NN(CCCCOc3ccc(C4=NNC(=O)CC4C)cc3)C(=O)[C@H]3CC=CC[C@@H]23)cc1OCC (relative stereo) [Compound 15, (cis)-6-(4-[4-{4-(3,4-diethoxyphenyl)-1-oxo-4a,5,8,8a-tetrahydro-2H-phthalazin-2-yl}-1-butyloxy)phenyl]-4,5-dihydro-5-methyl-2H-pyridazin-3-one] | 8.60 mol/l | 209 nM |
